# Assays:
# [1] = test system: HCT116 tumors; assay: Anti-tumor efficacy of Compound 1 in the HCT116 xenograft model (Example 12); assay type: in vivo, mice
# Protocol: Female BALB/c nude mice were inoculated subcutaneously in the right flank with HCT116 cells for tumor development. Nine days after tumor inoculation, mice with tumor sizes ranging from 90-260 mm^3 (average tumor size 155 mm^3) were selected and assigned into groups using stratified randomization with 8 mice per group based upon their tumor volumes. The treatments were started from the day of randomization (defined as D0), Group 1 was treated with Vehicle control, 10 ml/kg, IP, bid×21; Group 4 was treated with Compound 1, 1.4 mg/kg, SC, 5d ON, 2 d OFF×3 cycles; and Group 5 was treated with Compound 1, 3.3 mg/kg, IV, tiw, (Thu, Sat, Mon)×3 cycles. The tumor sizes were measured two times per week during the treatment. The entire study was terminated on D18 after start of the treatment. All treatments were well-tolerated without any adverse effects or significant body weight loss.
# [2] = test system: CT26.WT tumors; assay: Anti-tumor efficacy of Compound 1 in the CT26.WT model: schedule comparison (Example 5); assay type: in vivo, mice; details: for Mean Tumor Vol / TGI: Day 14; for Mean Tumor Vol / TGI / Cures / ILS: sc
# Protocol: Female BALB/c mice were inoculated subcutaneously at right flank with CT26.WT cells for tumor development. Treatment started on day 6 after tumor inoculation when the tumor size reached 40-79 mm^3 (average tumor size 57 mm^3). Each group consisted of 8 tumor-bearing mice. The tumor sizes were measured three times per week during the treatment. The entire study was terminated on D57 after start of the treatment. Otherwise, the experimental methods and procedures are similar to those described in EXAMPLE 2B.
# [3] = Group 4, 1.4 mg/kg SC 5 d ON 2 d OFF x3 cycles, day 11
# [4] = Group 5, 3.3 mg/kg IV tiw x3 cycles
# [5] = Group 5, 3.3 mg/kg IV tiw x3 cycles, day 11
# [6] = Group 2: 1.4 mpk 5-days ON 2-days OFF x4 cycles
# [7] = Group 3: 1.4 mpk 5-days ON 2-days OFF x2 cycles followed by 3-days ON (Mon-Wed) 4-days OFF x2 cycles
# [8] = Group 4: 1.4 mpk 5-days ON 2-days OFF x2 cycles followed by 3-days ON (Mon, Wed, Fri) 4-days OFF x2 cycles
# [9] = Group 5: 2.33 mpk 3-days ON (Mon-Wed) 4-days OFF x4 cycles
# [10] = Group 6: 2.33 mpk 3-days ON (Mon, Wed, Fri) 4-days OFF x4 cycles
# [11] = Group 7: 0.5 mpk 5-days ON 2-days OFF x4 cycles
# [12] = Group 8: 0.83 mpk 3-days ON (Mon-Wed) 4-days OFF x4 cycles
# [13] = Group 9: 0.83 mpk 3-days ON (Mon, Wed, Fri) 4-days OFF x4 cycles
smiles,measurement,setting,value
"CC(=O)N[C@@H](Cc1c[nH]c2ccccc12)C(=O)N[C@@H](CCC(=O)C=[N+]=[N-])C(=O)OC(C)C [Compound 1, Isopropyl (S)-2-((S)-2-acetamido-3-(1H-indol-3-yl)propanamido)-6-diazo-5-oxohexanoate]",Tumor volume,"[1]; Group 4, 1.4 mg/kg SC 5 d ON 2 d OFF x3 cycles, day 4",227 ± 39 mm^3
same,Tumor volume,"[1]; Group 4, 1.4 mg/kg SC 5 d ON 2 d OFF x3 cycles, day 7",294 ± 53 mm^3
same,T/C,[1]; [3],52.25%
same,TGI,[1]; [3],53.92%
same,Tumor volume,[1]; [3],602 ± 72 mm^3
same,Tumor volume,"[1]; Group 4, 1.4 mg/kg SC 5 d ON 2 d OFF x3 cycles, day 14",964 ± 176 mm^3
same,RTV at day 11,[1]; [4],3.70 ± 0.45
same,Tumor Size at day 11,[1]; [4],571 ± 82 mm^3
same,Tumor volume,"[1]; Group 5, 3.3 mg/kg IV tiw x3 cycles, day 0",156 ± 19 mm^3
same,Tumor volume,"[1]; Group 5, 3.3 mg/kg IV tiw x3 cycles, day 4",188 ± 23 mm^3
same,Tumor volume,"[1]; Group 5, 3.3 mg/kg IV tiw x3 cycles, day 7",378 ± 60 mm^3
same,T/C,[1]; [5],48.17%
same,TGI,[1]; [5],57.23%
same,Tumor volume,[1]; [5],571 ± 82 mm^3
same,Tumor volume,"[1]; Group 5, 3.3 mg/kg IV tiw x3 cycles, day 14",861 ± 134 mm^3
same,Tumor volume,"[1]; Group 5, 3.3 mg/kg IV tiw x3 cycles, day 18",1354 ± 204 mm^3
same,ILS (maximum median survival),[2]; 1.4 mg/kg 5-day ON 2-day OFF,106%
same,Long term cure,"[2]; 1.4 mg/kg 5-day ON 2-day OFF, animals cured/animals in group",1/8
same,"Tumor growth inhibition, schedule switch compared to 1.4 mg/kg 5-day ON 2-day OFF×4 cycles","[2]; 1.4 mg/kg, switching from 5-day ON 2-day OFF to 3-day ON 4-day OFF on Day 14",reduced tumor growth inhibition
same,"Efficacy and survival benefit, Mon-Wed compared with Mon, Wed, Fri dosing","[2]; 3-day ON 4-day OFF schedules, equivalent total dose per cycle",equivalent efficacy and survival benefit
same,Tumor growth inhibition and survival benefit compared to 3-day ON 4-day OFF schedules,"[2]; 5-day ON 2-day OFF schedule, equivalent total dose per cycle, 4 weeks",superior tumor growth inhibition and survival benefit
same,Mean Tumor Vol,[2]; [6],163 ± 25 mm^3
same,TGI,[2]; [6],92%
same,Mean Tumor Vol,[2]; [7],155 ± 27 mm^3
same,TGI,[2]; [7],93%
same,Mean Tumor Vol,[2]; [8],164 ± 12 mm^3
same,TGI,[2]; [8],92%
same,Mean Tumor Vol,[2]; [9],169 ± 32 mm^3
same,TGI,[2]; [9],92%
same,Mean Tumor Vol,[2]; [10],240 ± 45 mm^3
same,TGI,[2]; [10],87%
same,Mean Tumor Vol,[2]; [11],302 ± 41 mm^3
same,TGI,[2]; [11],82%
same,Mean Tumor Vol,[2]; [12],484 ± 87 mm^3
same,TGI,[2]; [12],69%
same,Mean Tumor Vol,[2]; [13],488 ± 74 mm^3
same,TGI,[2]; [13],68%
same,Cures,[2]; [6],12.5%
same,ILS,[2]; [6],106%
same,Cures,[2]; [7],0%
same,ILS,[2]; [7],67%
same,Cures,[2]; [8],12.5%
same,ILS,[2]; [8],94%
same,Cures,[2]; [9],0%
same,ILS,[2]; [9],86%
same,Cures,[2]; [10],0%
same,ILS,[2]; [10],94%
same,Cures,[2]; [11],0%
same,ILS,[2]; [11],67%
same,Cures,[2]; [12],0%
same,ILS,[2]; [12],67%
same,Cures,[2]; [13],0%
same,ILS,[2]; [13],39%

# Reference: patent publication US20220117938A1, “COMBINATON THERAPY WITH A DON PRODRUG AND AN IMMUNE CHECKPOINT INHIBITOR” (DRACEN PHARMACEUTICALS, INC., priority 2019, published 2022)
